Measurements: patent US10723711B2, “1,1,1-trifluoro-3-hydroxypropan-2-yl carbamate derivatives and 1,1,1-trifluoro-4-hydroxybutan-2-yl carbamate derivatives as MAGL inhibitors” (PFIZER INC., priority 2015, dated 2020)
pIC50: −log10 of the molar value. Where two headings read alike, the source gives them in different places.

Legend:
[1] = Prodrug in vivo pharmacokinetics in dogs after intravenous administration (LC-MS-MS of prodrug and parent); conditions: for % AUC Extrap / AUC Extrap / Co / Rate Constant / T½ / AUC / CL / Vdss: Beagle dogs; for clearance / Vd: beagle, dog, in vivo, iv, 0.7 mg/kg; for clearance: CL; for Vd: Vdss
Protocol: (§1) Pharmacokinetic parameters derived from the plasma analytical data were determined using Watson LIMS 7.2.003 (Thermo Fisher Scientific, Waltham, Mass.).

[2] = target: T1, human recombinant Monoacylglycerol Lipase (Homo sapiens, UniProt Q99685); test: MAGL inhibition enzymatic assay, fluorogenic substrate 7-HCA, IC50 at T=0 min or after 30 minute incubation (T=30 min); type: biochemical; conditions: geometric mean of 2-4 determinations unless otherwise indicated
T1 sequence (Q99685 1-303): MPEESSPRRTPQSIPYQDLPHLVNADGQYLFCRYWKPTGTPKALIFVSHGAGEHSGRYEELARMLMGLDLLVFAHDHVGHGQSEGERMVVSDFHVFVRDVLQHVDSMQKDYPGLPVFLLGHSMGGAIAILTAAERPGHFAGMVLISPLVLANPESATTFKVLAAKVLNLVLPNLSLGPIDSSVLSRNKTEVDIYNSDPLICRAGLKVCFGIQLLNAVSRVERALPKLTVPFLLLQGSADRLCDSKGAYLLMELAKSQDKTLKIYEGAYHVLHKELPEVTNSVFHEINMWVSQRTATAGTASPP
Protocol: An equal volume of 7-HCA in assay buffer with 10% DMSO was added either immediately (T=0 min) or after a 30 minute incubation (T=30 min) to initiate the reaction. […] After these dilutions, the final concentration of the test compound ranged from 3 μM to 0.03 nM. […] IC50 values were generated based on a four parameter fit model using ABASE software from IDBS.

[3] = Prodrug in vivo pharmacokinetics in rats after intravenous administration (LC-MS-MS of prodrug and parent); conditions: for Vd: Vdss
Protocol: as §1

[4] = Example 31 in plasma, IV Example 31 at 0.7 mg/kg, Dog 01
[5] = Example 31 in plasma, IV Example 31 at 0.7 mg/kg, Dog 02
[6] = Example 31 in plasma, IV Example 31 at 0.7 mg/kg, Mean
[7] = T = 0 min (substrate added immediately), read-out: MAGL (T = 0 min) IC50
[8] = T = 30 min (30 minute incubation), read-out: MAGL (T = 30 min) IC50
[9] = Example 31 in plasma, Wistar Hann rats, IV Example 31 at 1.48 mg/kg, Mean
[10] = Example 31 in plasma, Wistar Hann rats, IV Example 31 at 1.48 mg/kg, Rat 01
[11] = Example 31 in plasma, Wistar Hann rats, IV Example 31 at 1.48 mg/kg, Rat 02
[12] = Example 32 in plasma, IV Example 32 at 1 mg/kg, Dog 03
[13] = Example 32 in plasma, IV Example 32 at 1 mg/kg, Dog 04
[14] = Example 32 in plasma, IV Example 32 at 1 mg/kg, Mean
[15] = Example 32 in plasma, rats, IV Example 32 (2 mg/kg active), Mean
[16] = Example 32 in plasma, rats, IV Example 32 (2 mg/kg active), Rat 03
[17] = Example 32 in plasma, rats, IV Example 32 (2 mg/kg active), Rat 04

## O=C(O[C@H](COP(=O)([O-])[O-])C(F)(F)F)N1CCC2(CC1)C[C@@H](NS(=O)(=O)c1ccccc1)CO2.[Na+].[Na+] [Example 31, (2R)-3,3,3-Trifluoro-2-[({(3R)-3-[(phenylsulfonyl)amino]-1-oxa-8-azaspiro[4.5]dec-8-yl}carbonyl)oxy]propyl phosphate, disodium salt]
[1]; [4]
  % AUC Extrap: 0.181%
  AUC Extrap: 108 ng·h/mL
  Co: 1630 ng/mL
  Rate Constant: 11.3 h⁻¹
  T½: 3.68 min
  clearance: 108 mL/min/kg
  Vd: 0.235 L/kg
[1]; Example 31 in plasma, IV Example 31 at 0.7 mg/kg, Dog 01, AUC interval 0-0.5 Hours
  AUC: 108 ng·h/mL
[1]; [5]
  % AUC Extrap: 0.103%
  AUC Extrap: 53.9 ng·h/mL
  Co: 821 ng/mL
  Rate Constant: 11.2 h⁻¹
  T½: 3.72 min
  clearance: 216 mL/min/kg
  Vd: 0.465 L/kg
[1]; Example 31 in plasma, IV Example 31 at 0.7 mg/kg, Dog 02, AUC interval 0-0.5 Hours
  AUC: 53.8 ng·h/mL
[1]; [6]
  % AUC Extrap: 0.142%
  AUC: 80.9 ng·h/mL
  AUC Extrap: 81.0 ng·h/mL
  Co: 1230 ng/mL
  Rate Constant: 11.3 h⁻¹
  T½: 3.7 min
  clearance: 162 mL/min/kg
  Vd: 0.35 L/kg
[2]; [7]
  pIC50: < 5.52
[2]; [8]
  pIC50: < 5.52
[3]; [9]
  % AUC Extrap: 1.41%
  AUC: 43.0 ng·h/mL
  AUC Extrap: 43.6 ng·h/mL
  Co: 476 ng/mL
  Rate Constant: 12.1 h⁻¹
  T½: 3.75 min
[3]; [10]
  % AUC Extrap: 1.19%
  AUC Extrap: 43.6 ng·h/mL
  Co: 399 ng/mL
  Rate Constant: 8.61 h⁻¹
  T½: 4.83 min
[3]; Example 31 in plasma, Wistar Hann rats, IV Example 31 at 1.48 mg/kg, Rat 01, AUC interval 0-0.5 Hours
  AUC: 43.1 ng·h/mL
[3]; [11]
  % AUC Extrap: 1.62%
  AUC Extrap: 43.6 ng·h/mL
  Co: 553 ng/mL
  Rate Constant: 15.6 h⁻¹
  T½: 2.67 min
[3]; Example 31 in plasma, Wistar Hann rats, IV Example 31 at 1.48 mg/kg, Rat 02, AUC interval 0-0.25 Hours
  AUC: 42.9 ng·h/mL
[3]; Wistar Hann, rat, in vivo, iv, 1.48 mg/kg
  clearance: 566 mL/min/kg
[3]; Wistar Hann, rat, in vivo, iv, 1.48 mg/kg, Example 31 in plasma, Wistar Hann rats, IV Example 31 at 1.48 mg/kg, Mean
  Vd: 2.23 L/kg
[3]; Wistar Hann, rat, in vivo, iv, 1.48 mg/kg, Example 31 in plasma, Wistar Hann rats, IV Example 31 at 1.48 mg/kg, Rat 01
  Vd: 2.86 L/kg
[3]; Wistar Hann, rat, in vivo, iv, 1.48 mg/kg, Example 31 in plasma, Wistar Hann rats, IV Example 31 at 1.48 mg/kg, Rat 02
  Vd: 1.59 L/kg

## O=C(O[C@H](COP(=O)([O-])[O-])C(F)(F)F)N1CCC2(CC1)CN(S(=O)(=O)c1ccc(F)cc1)CCO2.[Na+].[Na+] [Example 32, (2R)-3,3,3-Trifluoro-2-[({4-[(4-fluorophenyl)sulfonyl]-1-oxa-4,9-diazaspiro[5.5]undec-9-yl}carbonyl)oxy]propyl phosphate, disodium salt]
[1]; [12]
  % AUC Extrap: 0.0443%
  AUC Extrap: 146 ng·h/mL
  CL: 114 mL/min/kg
  Co: 1220 ng/mL
  Rate Constant: 5.08 h⁻¹
  T½: 8.16 min
  Vdss: 0.751 L/kg
[1]; Example 32 in plasma, IV Example 32 at 1 mg/kg, Dog 03, AUC interval 0-1 Hours
  AUC: 146 ng·h/mL
[1]; [13]
  % AUC Extrap: 0.150%
  AUC Extrap: 229 ng·h/mL
  CL: 72.8 mL/min/kg
  Co: 2370 ng/mL
  Rate Constant: 5.06 h⁻¹
  T½: 8.22 min
  Vdss: 0.357 L/kg
[1]; Example 32 in plasma, IV Example 32 at 1 mg/kg, Dog 04, AUC interval 0-1 Hours
  AUC: 229 ng·h/mL
[1]; [14]
  % AUC Extrap: 0.0972%
  AUC: 188 ng·h/mL
  AUC Extrap: 188 ng·h/mL
  CL: 93.4 mL/min/kg
  Co: 1800 ng/mL
  Rate Constant: 5.07 h⁻¹
  T½: 8.22 min
  Vdss: 0.554 L/kg
[2]; [7]
  pIC50: < 5.52
[2]; [8]
  pIC50: < 5.52
[3]; [15]
  % AUC Extrap: 0.532%
  AUC: 159 ng·h/mL
  AUC Extrap: 160 ng·h/mL
  CL: 215 mL/min/kg
  Co: 3760 ng/mL
  Rate Constant: 5.94 h⁻¹
  T½: 7.32 min
  Vdss: 0.597 L/kg
[3]; [16]
  % AUC Extrap: 0.232%
  AUC Extrap: 185 ng·h/mL
  CL: 180 mL/min/kg
  Co: 4480 ng/mL
  Rate Constant: 4.73 h⁻¹
  T½: 8.82 min
  Vdss: 0.515 L/kg
[3]; Example 32 in plasma, rats, IV Example 32 (2 mg/kg active), Rat 03, AUC interval 0-1 Hours
  AUC: 185 ng·h/mL
[3]; [17]
  % AUC Extrap: 0.832%
  AUC Extrap: 134 ng·h/mL
  CL: 249 mL/min/kg
  Co: 3040 ng/mL
  Rate Constant: 7.14 h⁻¹
  T½: 5.83 min
  Vdss: 0.679 L/kg
[3]; Example 32 in plasma, rats, IV Example 32 (2 mg/kg active), Rat 04, AUC interval 0-0.5 Hours
  AUC: 133 ng·h/mL
